Measured values as given in ChEMBL document CHEMBL4622963, “Optimization of Nicotinamides as Potent and Selective IRAK4 Inhibitors with Efficacy in a Murine Model of Psoriasis” (ACS Med Chem Lett, 2020).

Key:
[1] = target: T1, Interleukin-1 receptor-associated kinase 4 (Homo sapiens, UniProt Q9NWZ3); assay: Inhibition of IRAK4 in human PBMC assessed as inhibition of LTA-induced IL-6 production preincubated for 30 mins followed by LTA-stimulation and measured after 5 hrs by ELISA; type: cell-based
T1 sequence (Q9NWZ3 whole entry): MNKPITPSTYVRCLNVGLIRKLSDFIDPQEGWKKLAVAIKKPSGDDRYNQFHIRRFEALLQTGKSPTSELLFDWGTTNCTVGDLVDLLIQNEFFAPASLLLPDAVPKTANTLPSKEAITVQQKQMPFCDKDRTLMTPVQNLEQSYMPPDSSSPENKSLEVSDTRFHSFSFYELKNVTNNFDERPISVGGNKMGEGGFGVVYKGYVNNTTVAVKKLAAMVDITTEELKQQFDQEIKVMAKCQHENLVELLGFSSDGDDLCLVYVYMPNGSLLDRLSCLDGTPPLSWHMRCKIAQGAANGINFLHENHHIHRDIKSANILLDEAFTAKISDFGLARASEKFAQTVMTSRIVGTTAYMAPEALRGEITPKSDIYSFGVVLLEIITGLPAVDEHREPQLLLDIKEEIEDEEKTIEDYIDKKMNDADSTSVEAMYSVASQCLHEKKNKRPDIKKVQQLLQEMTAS

Homo sapiens [2] = species: Homo sapiens; assay: Selectivity index, ratio of IC50 for N-terminal His6-tagged human full length recombinant LCK expressed in baculovirus infected Sf21 cells to IC50 for IRAK4 (unknown origin)
[3] = target: T1, Interleukin-1 receptor-associated kinase 4; assay: Inhibition of IRAK4 in human whole blood assessed as inhibition of LTA-induced IL-6 production preincubated for 30 mins followed by LTA-stimulation and measured after 5 hrs by ELISA; type: tissue-based
[4] = Stability in human liver microsomes assessed as parent compound remaining; type: ADME, Microsome
[5] = Stability in mouse liver microsomes assessed as parent compound remaining measured after 10 mins; type: ADME, Microsome; settings: read-out: Stability
Homo sapiens [6] = species: Homo sapiens; assay: Selectivity index, ratio of IC50 for recombinant N-terminal GST-tagged human cKit (544 to end residues) expressed in baculovirus infected Sf21 cells to IC50 for IRAK4 (unknown origin)
[7] = target: T1, Interleukin-1 receptor-associated kinase 4; assay: Inhibition of IRAK4 (unknown origin) using FL-IPTSPITTTYFFFKKK peptide and ATP as substrate incubated for 60 mins by fluorescence based caliper assay
[8] = Permeability across apical to basolateral side in human Caco2 cells; settings: Caco-2
Cytochrome P450 3A4 = Cytochrome P450 3A4 (Homo sapiens, UniProt P08684); assay: Inhibition of CYP3A4 (unknown origin); type: ADME
[9] = Clearance in mouse at 2 mg/kg, iv administered as infusion or 3 mg/kg, po via gavage measured up to 24 hrs by LC-MS analysis; type: ADME, organism-based; settings: in vivo
[10] = Volume of distribution at steady state in mouse at 2 mg/kg, iv administered as infusion or 3 mg/kg, po via gavage measured up to 24 hrs by LC-MS analysis; type: ADME, organism-based; settings: in vivo, read-out: Vdss
[11] = Half life in mouse at 2 mg/kg, iv administered as infusion or 3 mg/kg, po via gavage measured up to 24 hrs by LC-MS analysis; type: ADME, organism-based; settings: in vivo
[12] = AUC in mouse at 2 mg/kg, iv administered as infusion measured up to 24 hrs by LC-MS analysis; type: ADME, organism-based; design: time < 24 hr, dose 2 mg/kg, route intravenous; settings: in vivo
[13] = AUC in mouse at 3 mg/kg, po via gavage measured up to 24 hrs by LC-MS analysis; type: ADME, organism-based; design: dose 3 mg/kg, time < 24 hr, route oral; settings: in vivo
[14] = Oral bioavailability in mouse at 3 mg/kg administered via gavage measured up to 24 hrs by LC-MS analysis; type: ADME, organism-based; settings: in vivo

Chain of Cytochrome P450 3A4 (P08684 whole entry, the tested form may be a part): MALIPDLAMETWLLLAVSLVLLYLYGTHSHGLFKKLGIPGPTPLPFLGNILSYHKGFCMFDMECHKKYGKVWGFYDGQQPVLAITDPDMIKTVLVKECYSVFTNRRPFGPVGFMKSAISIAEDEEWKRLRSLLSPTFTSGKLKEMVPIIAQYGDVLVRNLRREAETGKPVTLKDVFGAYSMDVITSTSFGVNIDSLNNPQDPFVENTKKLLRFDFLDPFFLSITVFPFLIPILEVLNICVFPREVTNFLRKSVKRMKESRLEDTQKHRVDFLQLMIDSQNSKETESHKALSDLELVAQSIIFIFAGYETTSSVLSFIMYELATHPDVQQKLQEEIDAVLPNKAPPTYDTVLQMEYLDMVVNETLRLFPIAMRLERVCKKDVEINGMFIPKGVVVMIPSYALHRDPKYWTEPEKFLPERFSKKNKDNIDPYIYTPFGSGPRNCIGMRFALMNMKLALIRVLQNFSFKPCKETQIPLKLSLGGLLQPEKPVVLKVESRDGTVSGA

SMILES: CC(C)(O)[C@@H](F)CNC(=O)c1cnc(Nc2ccc3ncsc3c2)cc1NC1CC1
- IC50 [1]: 730 nM
- Ratio IC50 (Homo sapiens [2]): 110

SMILES: CC(C)Nc1cc(Nc2ccc3nsnc3c2)ncc1C(=O)NC[C@@H](F)C(C)(C)O
- IC50 [1]: 320 nM
- IC50 [3]: 1160 nM
- Stability [4]: 74%
- remaining at 10 min [5]: 80%
- Ratio IC50 (Homo sapiens [2]): 93
- Ratio IC50 (Homo sapiens [6]): > 15000

SMILES: CC(C)Nc1cc(Nc2ccc3ncsc3c2)ncc1C(=O)NCCc1ccc(S(N)(=O)=O)cc1
- IC50 [7]: 5.7 nM
- IC50 [1]: 1200 nM
- Stability [4]: 17%
- remaining at 10 min [5]: 38%
- Ratio IC50 (Homo sapiens [2]): 280
- Papp A→B [8]: < 1.5 ×10⁻⁶ cm/s
- IC50 (Cytochrome P450 3A4): 900 nM

SMILES: CC(C)Nc1cc(Nc2ccc3ncsc3c2)ncc1C(=O)NC[C@@H](C)C(C)(C)O
- IC50 [7]: 19 nM
- IC50 [1]: 2900 nM

SMILES: CC(C)Nc1cc(Nc2ccc3nonc3c2)ncc1C(=O)NC[C@@H](F)C(C)(C)O
- IC50 [7]: 8.7 nM
- IC50 [1]: 640 nM
- IC50 [3]: 210 nM
- Stability [4]: 93%
- remaining at 10 min [5]: 89%
- Ratio IC50 (Homo sapiens [2]): 190
- Ratio IC50 (Homo sapiens [6]): 420
- Papp A→B [8]: 3.8 ×10⁻⁶ cm/s
- clearance [9]: 14 mL/min/kg
- Vd [10]: 3.2 L/kg
- half-life [11]: 3.6 h
- AUC at 24 h [12]: 4.7 µM·h
- AUC at 24 h [13]: 4.6 µM·h
- bioavailability [14]: 65%

SMILES: CC(C)Nc1cc(Nc2ccc3ncsc3c2)ncc1C(=O)NCCCO
- IC50 [7]: 24 nM
- IC50 [1]: 6900 nM
- Stability [4]: 84%
- remaining at 10 min [5]: 87%
- Ratio IC50 (Homo sapiens [2]): 16

SMILES: CNC(=O)c1cnc(Nc2ccc3ncsc3c2)cc1NC(C)C
- IC50 [7]: 21 nM
- IC50 [1]: 4500 nM
- Ratio IC50 (Homo sapiens [2]): 28
- Papp A→B [8]: 21 ×10⁻⁶ cm/s

SMILES: CNC(=O)c1cnc(Nc2ccc3ncsc3c2)cc1N[C@H](CO)Cc1ccccc1
- Stability [4]: 46%
- remaining at 10 min [5]: 29%
- Papp A→B [8]: < 1.5 ×10⁻⁶ cm/s

SMILES: CC(C)Nc1cc(Nc2ccc3ncsc3c2)ncc1C(=O)NC[C@@H](F)C(C)(C)O
- IC50 [7]: 2.4 nM
- IC50 [1]: 480 nM
- IC50 [3]: 2000 nM
- Stability [4]: 92%
- remaining at 10 min [5]: 86%
- Ratio IC50 (Homo sapiens [2]): 270

SMILES: CCCNC(=O)c1cnc(Nc2ccc3ncsc3c2)cc1NC(C)C
- IC50 [7]: 12 nM
- Stability [4]: 52%
- remaining at 10 min [5]: 32%

SMILES: CCCCNC(=O)c1cnc(Nc2ccc3ncsc3c2)cc1NC(C)C
- IC50 [7]: 7 nM
- Stability [4]: 55%
- remaining at 10 min [5]: 31%

SMILES: CNC(=O)c1cnc(Nc2ccc3ncsc3c2)cc1N[C@@H](c1ccccc1)[C@H](O)CO
- Stability [4]: 90%
- remaining at 10 min [5]: 22%
- Papp A→B [8]: < 1.5 ×10⁻⁶ cm/s

SMILES: Cc1nc2ccc(Nc3cc(NC(C)C)c(C(=O)NC[C@@H](F)C(C)(C)O)cn3)cc2s1
- IC50 [7]: 8 nM
- IC50 [1]: 1700 nM
- IC50 [3]: 12000 nM
- Stability [4]: 92%
- remaining at 10 min [5]: 78%
- Ratio IC50 (Homo sapiens [2]): 3500
- Ratio IC50 (Homo sapiens [6]): 6200

SMILES: CC(C)(O)CCNC(=O)c1cnc(Nc2ccc3ncsc3c2)cc1NC1CC1
- IC50 [1]: 290 nM
- IC50 [3]: 900 nM
- Stability [4]: 65%
- remaining at 10 min [5]: 99%
- Ratio IC50 (Homo sapiens [2]): 200

SMILES: CC(C)Nc1cc(Nc2ccn3nccc3c2)ncc1C(=O)NC[C@@H](F)C(C)(C)O
- IC50 [1]: 410 nM
- IC50 [3]: 650 nM
- Stability [4]: 78%
- remaining at 10 min [5]: 85%
- Ratio IC50 (Homo sapiens [2]): > 380
- Ratio IC50 (Homo sapiens [6]): 240

SMILES: CCNC(=O)c1cnc(Nc2ccc3ncsc3c2)cc1NC(C)C
- IC50 [7]: 15 nM
- Stability [4]: 74%
- remaining at 10 min [5]: 45%

SMILES: CC(C)Nc1cc(Nc2ccc3ncsc3c2)ncc1C(=O)NCCC(C)(C)O
- IC50 [1]: 290 nM
- IC50 [3]: 1100 nM
- Stability [4]: 79%
- remaining at 10 min [5]: 68%
- Ratio IC50 (Homo sapiens [2]): 104

SMILES: CC(C)Nc1cc(Nc2ccc3ncsc3c2)ncc1C(=O)NCC(F)(F)C(C)(C)O
- IC50 [1]: 570 nM
- IC50 [3]: 2800 nM
- Stability [4]: 71%
- remaining at 10 min [5]: 61%
- Ratio IC50 (Homo sapiens [2]): 320
